From PubChem BioAssay AID2060512 (Molecular Pharmacology Branch, DTP, NCI, 2025)

Tested on: 186277-243-T-J2-PDC complex spheroid viability
Assay: Anticancer human tumor 186277-243-T-J2-PDC patient-derived colon adenocarcinoma cell line growth inhibition [GQUAD]
Details: for IC50: curve of first compound; for viability, T/C: stronger effect = lower value
How it was run: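 Viability of tumor cells grown as complex spheroids with endothelial and stromal cells, exposed to drug combinations. Top concentration at or near clinical Cmax (else 10 microM), diluted in half-log increments.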

[1] = second compound 0.0316 µM, first compound 0.0316 µM
[2] = second compound 0.0316 µM, first compound 0.1 µM
[3] = second compound 0.0316 µM, first compound 0.316 µM
[4] = second compound 0.0316 µM, first compound 1 µM
[5] = second compound 0.0316 µM, first compound 3.16 µM
[6] = second compound 0.0316 µM, first compound 10 µM
[7] = second compound 0.1 µM, first compound 0.0316 µM
[8] = second compound 0.1 µM, first compound 0.1 µM
[9] = second compound 0.1 µM, first compound 0.316 µM
[10] = second compound 0.1 µM, first compound 1 µM
[11] = second compound 0.1 µM, first compound 3.16 µM
[12] = second compound 0.1 µM, first compound 10 µM
[13] = second compound 0.316 µM, first compound 0.0316 µM
[14] = second compound 0.316 µM, first compound 0.1 µM
[15] = second compound 0.316 µM, first compound 0.316 µM
[16] = second compound 0.316 µM, first compound 1 µM
[17] = second compound 0.316 µM, first compound 3.16 µM
[18] = second compound 0.316 µM, first compound 10 µM
[19] = second compound 1 µM, first compound 0.0316 µM
[20] = second compound 1 µM, first compound 0.1 µM
[21] = second compound 1 µM, first compound 0.316 µM
[22] = second compound 1 µM, first compound 1 µM
[23] = second compound 1 µM, first compound 3.16 µM
[24] = second compound 1 µM, first compound 10 µM
[25] = second compound 3.16 µM, first compound 0.0316 µM
[26] = second compound 3.16 µM, first compound 0.1 µM
[27] = second compound 3.16 µM, first compound 0.316 µM
[28] = second compound 3.16 µM, first compound 1 µM
[29] = second compound 3.16 µM, first compound 3.16 µM
[30] = second compound 3.16 µM, first compound 10 µM
[31] = second compound 10 µM, first compound 0.0316 µM
[32] = second compound 10 µM, first compound 0.1 µM
[33] = second compound 10 µM, first compound 0.316 µM
[34] = second compound 10 µM, first compound 1 µM
[35] = second compound 10 µM, first compound 3.16 µM
[36] = second compound 10 µM, first compound 10 µM
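Throughout, for viability, T/C: 100% = DMSO vehicle control viability.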

CC1COCCN1c1cc(-c2ccnn2C)c2ccnc(-c3ccn[nH]3)c2n1 (stereo not drawn) + Cc1[nH]c2ccc(F)cc2c1-c1nc2c3cccnc3c3ncccc3c2[nH]1
IC50 (second compound 0.0316 µM): 50.5 nM | IC50 (second compound 0.1 µM): 48.5 nM | IC50 (second compound 0.316 µM): 50.6 nM | IC50 (second compound 1 µM): < 31.6 nM | IC50 (second compound 3.16 µM): 40.4 nM | IC50 (second compound 10 µM): 33.6 nM | viability, T/C [1]: 74.1% | viability, T/C [2]: 15% | viability, T/C [3]: 7.54% | viability, T/C [4]: 5% | viability, T/C [5]: 5.42% | viability, T/C [6]: 5.79% | viability, T/C [7]: 70.8% | viability, T/C [8]: 15% | viability, T/C [9]: 8.57% | viability, T/C [10]: 5.57% | viability, T/C [11]: 6.67% | viability, T/C [12]: 6.18% | viability, T/C [13]: 72.2% | viability, T/C [14]: 17.8% | viability, T/C [15]: 7.48% | viability, T/C [16]: 5.56% | viability, T/C [17]: 6.42% | viability, T/C [18]: 6.89% | viability, T/C [19]: 49% | viability, T/C [20]: 13.3% | viability, T/C [21]: 6.83% | viability, T/C [22]: 5.52% | viability, T/C [23]: 7.58% | viability, T/C [24]: 7.98% | viability, T/C [25]: 59.7% | viability, T/C [26]: 13.9% | viability, T/C [27]: 7.5% | viability, T/C [28]: 6.04% | viability, T/C [29]: 7.48% | viability, T/C [30]: 7.66% | viability, T/C [31]: 52.1% | viability, T/C [32]: 11.5% | viability, T/C [33]: 8.02% | viability, T/C [34]: 5.7% | viability, T/C [35]: 5.81% | viability, T/C [36]: 6.85%

CC1COCCN1c1cc(C2(O)CC3CCC(C2)O3)c2cnn(-c3ccn[nH]3)c2n1 (stereo not drawn) + Cc1[nH]c2ccc(F)cc2c1-c1nc2c3cccnc3c3ncccc3c2[nH]1
IC50 (second compound 0.0316 µM): 38.1 nM | IC50 (second compound 0.1 µM): 33.9 nM | IC50 (second compound 0.316 µM): < 31.6 nM | IC50 (second compound 1 µM): < 31.6 nM | IC50 (second compound 3.16 µM): < 31.6 nM | IC50 (second compound 10 µM): 33.2 nM | viability, T/C [1]: 57.5% | viability, T/C [2]: 10.8% | viability, T/C [3]: 6.48% | viability, T/C [4]: 5.12% | viability, T/C [5]: 5.33% | viability, T/C [6]: 4.69% | viability, T/C [7]: 52.6% | viability, T/C [8]: 10.2% | viability, T/C [9]: 8.88% | viability, T/C [10]: 4.75% | viability, T/C [11]: 5.69% | viability, T/C [12]: 3.63% | viability, T/C [13]: 31.9% | viability, T/C [14]: 11.2% | viability, T/C [15]: 8.68% | viability, T/C [16]: 5.79% | viability, T/C [17]: 6.74% | viability, T/C [18]: 4.58% | viability, T/C [19]: 40.6% | viability, T/C [20]: 22.6% | viability, T/C [21]: 6.11% | viability, T/C [22]: 7.77% | viability, T/C [23]: 6.18% | viability, T/C [24]: 4.27% | viability, T/C [25]: 48.3% | viability, T/C [26]: 14.4% | viability, T/C [27]: 6.36% | viability, T/C [28]: 4.01% | viability, T/C [29]: 5.26% | viability, T/C [30]: 2.84% | viability, T/C [31]: 52% | viability, T/C [32]: 16.5% | viability, T/C [33]: 8.81% | viability, T/C [34]: 3.92% | viability, T/C [35]: 4.33% | viability, T/C [36]: 1.45%

CC1COCCN1c1cc(C2(S(C)(=N)=O)CC2)nc(-c2ccnc3[nH]ccc23)n1 (stereo not drawn) + Cc1[nH]c2ccc(F)cc2c1-c1nc2c3cccnc3c3ncccc3c2[nH]1
IC50 (second compound 0.0316 µM): 791 nM | IC50 (second compound 0.1 µM): 839 nM | IC50 (second compound 0.316 µM): 1210 nM | IC50 (second compound 1 µM): 1600 nM | IC50 (second compound 3.16 µM): 1140 nM | IC50 (second compound 10 µM): 1210 nM | viability, T/C [1]: 109% | viability, T/C [2]: 104% | viability, T/C [3]: 105% | viability, T/C [4]: 35.6% | viability, T/C [5]: 11.1% | viability, T/C [6]: 10.7% | viability, T/C [7]: 109% | viability, T/C [8]: 88.3% | viability, T/C [9]: 87.7% | viability, T/C [10]: 42.6% | viability, T/C [11]: 13.2% | viability, T/C [12]: 4.44% | viability, T/C [13]: 87.7% | viability, T/C [14]: 89.4% | viability, T/C [15]: 117% | viability, T/C [16]: 58.1% | viability, T/C [17]: 10.9% | viability, T/C [18]: 8.17% | viability, T/C [19]: 91.1% | viability, T/C [20]: 85.8% | viability, T/C [21]: 101% | viability, T/C [22]: 74.2% | viability, T/C [23]: 15% | viability, T/C [24]: 8.18% | viability, T/C [25]: 102% | viability, T/C [26]: 92.4% | viability, T/C [27]: 97.5% | viability, T/C [28]: 53.5% | viability, T/C [29]: 16.3% | viability, T/C [30]: 7.22% | viability, T/C [31]: 90.1% | viability, T/C [32]: 98.2% | viability, T/C [33]: 96.9% | viability, T/C [34]: 57.2% | viability, T/C [35]: 12.8% | viability, T/C [36]: 6.82%

COc1ccc([C@@H](O)c2cc(-c3ncnc4cc(N5CCOCC5)ccc34)c(F)cc2Cl)nn1 + Cc1[nH]c2ccc(F)cc2c1-c1nc2c3cccnc3c3ncccc3c2[nH]1
IC50 (second compound 0.0316 µM): 4920 nM | IC50 (second compound 0.1 µM): 6890 nM | IC50 (second compound 0.316 µM): 6470 nM | IC50 (second compound 1 µM): 5920 nM | IC50 (second compound 3.16 µM): 4990 nM | IC50 (second compound 10 µM): 5740 nM | viability, T/C [1]: 95.7% | viability, T/C [2]: 101% | viability, T/C [3]: 97.2% | viability, T/C [4]: 80.9% | viability, T/C [5]: 66.3% | viability, T/C [6]: 25.9% | viability, T/C [7]: 94.5% | viability, T/C [8]: 89.9% | viability, T/C [9]: 104% | viability, T/C [10]: 99.5% | viability, T/C [11]: 85.2% | viability, T/C [12]: 33.1% | viability, T/C [13]: 105% | viability, T/C [14]: 94.8% | viability, T/C [15]: 103% | viability, T/C [16]: 106% | viability, T/C [17]: 81.5% | viability, T/C [18]: 30.9% | viability, T/C [19]: 89.2% | viability, T/C [20]: 90% | viability, T/C [21]: 115% | viability, T/C [22]: 102% | viability, T/C [23]: 71.2% | viability, T/C [24]: 32.4% | viability, T/C [25]: 93.4% | viability, T/C [26]: 92.7% | viability, T/C [27]: 112% | viability, T/C [28]: 85.3% | viability, T/C [29]: 68.6% | viability, T/C [30]: 23.2% | viability, T/C [31]: 93.4% | viability, T/C [32]: 91.4% | viability, T/C [33]: 114% | viability, T/C [34]: 88.8% | viability, T/C [35]: 66.7% | viability, T/C [36]: 34.9%
